Laboratory results published in US9637476B2, “Atrasentan mandelate salts” (AbbVie Inc., priority 2013, dated 2017).
Values joined by “and” are separate entries in the source; they are usually repeats but may differ in a detail not shown here. Identical values can stand only once. Counter-ions that a name gives are not always drawn. Like-named read-outs stand apart in the source and are kept apart here. Marks after values point to notes of the source that are not given here.

Experiments:
Format in all cases: physicochemical
[1] = Bulk density and tap density (USP <616>); conditions: unmilled; USP <616> Method I, 100 mL cylinder
Method: Bulk and tap density are measured following United States Pharmacopeia and National Formulary guidelines (USP <616>). Approximately 60 mL of each sample is added into a 100 mL graduated cylinder. The powder is carefully leveled without compacting, and the volume is read directly from the cylinder and used to calculate the bulk density according to the relationship: mass/volume. The cylinder containing the powder sample is then mechanically tapped using a VanKel Tap Density Tester (Model 50-1200, Varian, Inc., Palo Alto, Calif.) until there is no change in volume. The volume of the sample is then read and used in the calculation of tap density.
Bulk density and tap density were measured for samples of the following materials: (i) unmilled atrasentan hydrochloride salt having the morphology and particle size distribution listed below in Table 10; and (ii) unmilled atrasentan mandelate salt having the morphology and particle size distribution listed below in Table 10. […] Bulk density was measured in accordance with Bulk Density, Method I of United States Pharmacopeia and National Formulary Guidelines (USP <616>) except that a 100 mL cylinder was filled with the sample for the testing. Tap density was measured in accordance with Tapped Density, Method I of United States Pharmacopeia and National Formulary guidelines (USP <616>) except that a 100 mL cylinder was filled with the sample for the testing.

[2] = Intrinsic dissolution rate as a function of chloride ion concentration; conditions: for IDR (intrinsic dissolution rate): pH 2.0 phosphate buffer, 37° C., 50 rpm; for linear regression intercept a of IDR = a + b × [Cl−] / linear regression slope b of IDR = a + b × [Cl−]: pH 2.0, [Cl−] 0 to 0.17 M
Method: (§1) About 100 mg of the sample tested was prepared by compressing the sample in a stainless steel die under 1100 pounds force with a dwell time of one minute to form a pellet. The die (diameter: 0.373 inch, area: 0.704 cm^2) containing the pellet was submerged in 250 mL of a phosphate buffer dissolution test medium having a pH of 2.0 and a chloride ion concentration of 0 M, 0.017 M, or 0.17 M. The medium was stirred by a paddle at 50 rpm and maintained at 37° C. To measure the concentration of the sample material in test medium, a fiber optic dip probe (μDiss Profile, pION
Inc) was used to monitor the UV absorbance as a function of time. The measured data are reported in Table 13-A below and are shown graphically in FIG. 5.
The intrinsic dissolution data reported in Table 13-A were further evaluated using linear regression analysis.

[3] = Crystal morphology assessed by microscopy
[4] = Oxidative stability (urea-H2O2 co-crystal, HPLC); conditions: for RECOVERED (%): solid exposed to urea-H2O2 co-crystal, 40° C., HPLC, individual samples 1-3; for RECOVERED (%) / AVERAGE (%) recovered / AVERAGE % (NORMALIZED): seven days; for AVERAGE (%) recovered / AVERAGE % (NORMALIZED): urea-H2O2, 40° C.; for AVERAGE (%) recovered: mean of samples 1-3; for AVERAGE % (NORMALIZED): sample average normalized to freezer blank average
Method: About 1 mg of each solid was placed in a 4 mL glass vial and about 10 mg of urea-H2O2 co-crystal was placed in another 4 mL vial. The two vials then were connected by a connector (Kontes connector, 13-425X13-425, apt NO 747205-1313) and left in an oven at 40° C. for seven days. Blank samples were prepared by placing about 1 mg of each compound in a 4 mL vial and then storing the vial in a freezer at about −20° C. for the same period of time. The oven samples and freezer blanks were analyzed at the same time by HPLC. The measured data are reported in Table II-B below and the normalized data from Table II-B are shown in a bar chart in FIG. 3.

[5] = Morphology and particle size distribution of the unmilled samples; conditions: for PARTICLE SIZE DISTRIBUTION D10 / PARTICLE SIZE DISTRIBUTION D50 / PARTICLE SIZE DISTRIBUTION D90: unmilled; for MORPHOLOGY: unmilled sample used for density measurement
[6] = Intrinsic dissolution rate as a function of pH; conditions: for IDR (intrinsic dissolution rate): 37° C., 50 rpm, single runs
Method: as §1, with “of 2.0, 5.0,” for “of 2.0 and a chloride ion concentration of 0 M, 0.017 M,”, “or 7.4.” for “or 0.17 M.”, “in the” for “in test”, “pION Inc) was used to monitor the UV absorbance as a function of time. The measured data are reported in Table 12-A below and are shown graphically in FIG. 4.” for “pION”

[7] = Moisture sorption isotherm (DVS); conditions: 25° C.; as the relative humidity decreased below 10%
Method: A study was conducted to evaluate the moisture sorption isotherms of atrasentan hemi-sulfate salt (1:1 stoichiometry), monohydrate, and atrasentan S-mandelate salt (1:1 stoichiometry), anhydrate. A sample (about 5 mg to about 20 mg) of the powder to be tested was loaded onto the tared pan of a DVS Advantage dynamic gravimetric water sorption analyzer (Surface Measurement Systems Ltd, Alperton, United Kingdom). The moisture sorption isotherm for each sample was collected at 10% relative humidity intervals as the relative humidity was adjusted in the following manner: (a) 0% to 90% to 0% to 90% to 40% for the hemi-sulfate salt, and (b) 0% to 90% to 0% for the S-mandelate salt. For each step, the dm/dt criteria were 0.001% over 5 minutes with a minimum dm/dt time of 30 minutes and a maximum dm/dt of 120 minutes. Data was collected isothermally at 25° C. with a nitrogen flow rate of […]. The sample was maintained at 30% relative humidity and analyzed by PXRD. The moisture sorption isotherms generated for the hemi-sulfate and S-mandelate salt samples are shown in FIG. 6-A and FIG. 6-B, respectively.

For `CCCCN(CCCC)C(=O)CN1C[C@H](c2ccc3c(c2)OCO3)[C@@H](C(=O)O)[C@@H]1c1ccc(OC)cc1` [Hydrochloride], the “BULK DENSITY” value [1] was 0.11 g/mL, the “TAP DENSITY” value [1] was 0.20 g/mL and the “IDR (intrinsic dissolution rate)” value ([2]; [Cl−] 0.0 M) was 1.4 × 10^−1 (n = 1) mg/min/cm^2. The “IDR (intrinsic dissolution rate)” value ([2]; [Cl−] 0.017 M) was 1.3 × 10^−1 (n = 1) mg/min/cm^2, the “IDR (intrinsic dissolution rate)” value ([2]; [Cl−] 0.17 M) was 4.2 × 10^−2 (n = 1) mg/min/cm^2 and the “linear regression intercept a of IDR = a + b × [Cl−]” value [2] was “a2 = 0.1377”. The “linear regression slope b of IDR = a + b × [Cl−]” value [2] was “b2 = −0.5609”, the “CRYSTAL MORPHOLOGY” value ([3]; listed as Hydrochloride (1:1 Stoichiometry), Crystalline Form II) was “Needle” and the “RECOVERED (%)” value [4] was 87.62% and 87.21% and 83.11%. The “AVERAGE (%) recovered” value [4] was 85.98%, the “AVERAGE % (NORMALIZED)” value [4] was 89.48% and the “PARTICLE SIZE DISTRIBUTION D10” value [5] was 6.0 μm. The “PARTICLE SIZE DISTRIBUTION D50” value [5] was 20 μm, the “PARTICLE SIZE DISTRIBUTION D90” value [5] was 86 μm and the MORPHOLOGY [5] was “Needle”.
In the case of `CCCCN(CCCC)C(=O)CN1C[C@H](c2ccc3c(c2)OCO3)[C@@H](C(=O)O)[C@@H]1c1ccc(OC)cc1` [Parent, Quarter-hydrate, (2R,3R,4S)-4-(1,3-benzodioxol-5-yl)-1-[2-(dibutylamino)-2-oxoethyl]-2-(4-methoxyphenyl)pyaolidine-3-carboxylic acid], the “CRYSTAL MORPHOLOGY” value [3] is reported as “Needle”.
In the case of `CCCCN(CCCC)C(=O)CN1C[C@H](c2ccc3c(c2)OCO3)[C@@H](C(=O)O)[C@@H]1c1ccc(OC)cc1.Cl`, the “CRYSTAL MORPHOLOGY” value [3] is reported as “Needle”.
With `CCCCN(CCCC)C(=O)CN1CC(c2ccc3c(c2)OCO3)C(C(=O)O)C1c1ccc(OC)cc1.Cl` (stereo not drawn) the “CRYSTAL MORPHOLOGY” value [3] was “Needle”.
With `CCCCN(CCCC)C(=O)CN1C[C@H](c2ccc3c(c2)OCO3)[C@@H](C(=O)O)[C@@H]1c1ccc(OC)cc1` [Parent, Anhydrate, (2R,3R,4S)-4-(1,3-benzodioxol-5-yl)-1-[2-(dibutylamino)-2-oxoethyl]-2-(4-methoxyphenyl)pyaolidine-3-carboxylic acid] the “CRYSTAL MORPHOLOGY” value [3] was “Needle”.
For `CCCCN.CCCCN(CCCC)C(=O)CN1CC(c2ccc3c(c2)OCO3)C(C(=O)O)C1c1ccc(OC)cc1` (stereo not drawn), the “CRYSTAL MORPHOLOGY” value [3] was “Bar”.
With `CCCCN(CCCC)C(=O)CN1C[C@H](c2ccc3c(c2)OCO3)[C@@H](C(=O)O)[C@@H]1c1ccc(OC)cc1` [Parent, (2R,3R,4S)-4-(1,3-benzodioxol-5-yl)-1-[2-(dibutylamino)-2-oxoethyl]-2-(4-methoxyphenyl)pyaolidine-3-carboxylic acid] the “CRYSTAL MORPHOLOGY” value ([3]; Hemi-hydrate) was “Prism”, the “RECOVERED (%)” value [4] was 93.76% and 91.62% and 89.37% and the “AVERAGE (%) recovered” value [4] was 91.58%. The “AVERAGE % (NORMALIZED)” value [4] was 89.56%, the “IDR (intrinsic dissolution rate)” value ([6]; pH 2.0 phosphate buffer) was 2.7 × 10^−2 (n = 1) mg/min/cm^2 and the “IDR (intrinsic dissolution rate)” value ([6]; pH 5.0 phosphate buffer) was 5.1 × 10^−3 mg/min/cm^2 and 5.4 × 10^−3 mg/min/cm^2. The “IDR (intrinsic dissolution rate)” value ([6]; pH 7.4 phosphate buffer) was 3.6 × 10^−2 (n = 1) mg/min/cm^2.
In the case of `CCCCN(CCCC)C(=O)CN1CC(c2ccc3c(c2)OCO3)C(C(=O)O)C1c1ccc(OC)cc1.O=C(O)C(O)c1ccccc1` (stereo not drawn), the “CRYSTAL MORPHOLOGY” value [3] is reported as “Prism”.
For Mandelate, the “BULK DENSITY” value [1] was 0.25 g/mL, the “TAP DENSITY” value [1] was 0.40 g/mL and the “IDR (intrinsic dissolution rate)” value ([2]; [Cl−] 0.0 M) was 1.0 × 10^−1 (n = 1) mg/min/cm^2. The “IDR (intrinsic dissolution rate)” value ([2]; [Cl−] 0.017 M) was 1.0 × 10^−1 (n = 1) mg/min/cm^2, the “IDR (intrinsic dissolution rate)” value ([2]; [Cl−] 0.17 M) was 8.3 × 10^−2 (n = 3)** mg/min/cm^2 and the “sensitivity of intrinsic dissolution rate to chloride ion concentration compared with hydrochloride salt” value ([2]; linear regression slopes) was “less sensitive to chloride ion concentration”. The “linear regression intercept a of IDR = a + b × [Cl−]” value [2] was “a1 = 0.1035”, the “linear regression slope b of IDR = a + b × [Cl−]” value [2] was “b1 = −0.1222” and the “CRYSTAL MORPHOLOGY” value [3] was “Prism”. The “oxidative stability compared with atrasentan parent and hydrochloride salt” value ([4]; ANOVA of sample recovery proportion) was “greater oxidative stability”, the “RECOVERED (%)” value [4] was 82.40% and 80.67% and 83.11% and the “AVERAGE (%) recovered” value [4] was 79.58%. The “AVERAGE % (NORMALIZED)” value [4] was 99.30%, the “IDR (intrinsic dissolution rate)” value ([6]; pH 5.0 phosphate buffer) was 2.1 × 10^−2 mg/min/cm^2 and 1.8 × 10^−2 mg/min/cm^2 and the “IDR (intrinsic dissolution rate)” value ([6]; pH 7.4 phosphate buffer) was 1.1 × 10^−1 mg/min/cm^2 and 1.0 × 10^−1 mg/min/cm^2. The “intrinsic dissolution rate compared with atrasentan parent” value ([6]; paired t-test, pH 2.0, 5.0, 7.4) was “statistically greater intrinsic dissolution rate”, the “PARTICLE SIZE DISTRIBUTION D10” value [5] was 16 μm and the “PARTICLE SIZE DISTRIBUTION D50” value [5] was 49 μm. For the same molecule, the “PARTICLE SIZE DISTRIBUTION D90” value [5] was 141 μm and the MORPHOLOGY [5] was “Prismatic”.
For `CCCCN(CCCC)C(=O)CN1CC(c2ccc3c(c2)OCO3)C(C(=O)O)C1c1ccc(OC)cc1.O.O=S(=O)(O)O` (stereo not drawn), the “CRYSTAL MORPHOLOGY” value [3] was “Needle” and the “solid form change during moisture sorption isotherm” value [7] was “partial conversion from the hydrate form to the anhydrate form”.
With `CCCCN(CCCC)C(=O)CN1CC(c2ccc3c(c2)OCO3)C(C(=O)O)C1c1ccc(OC)cc1.CCCCN(CCCC)C(=O)CN1CC(c2ccc3c(c2)OCO3)C(C(=O)O)C1c1ccc(OC)cc1.O=C(O)C(O)c1ccccc1` (stereo not drawn) [S-Mandelate (2:1 Stoichiometry), Hydrate] the “CRYSTAL MORPHOLOGY” value [3] was “Prism”.
